Laboratory results as given in US20120301478A1, “Pharmaceutical for Preventing or Treating Disorders Accompanied by Ocular Angiogenesis and/or Elevated Ocular Vascular Permeability” (priority 2010, published 2012).

Tests used:
[1] = system: STZ-diabetic rat retina; details: streptozotocin (STZ)-diabetic rat, cited from earlier work
[2] = system: choroidal neovascularization (CNV) model, increased vascular permeability; experiment: Laser-induced CNV mouse model, fluorescein-fluorescent fundus angiography, vascular permeability (Experiment 2); format: in vivo; details: fidarestat forced oral 16 mg/kg twice a day (32 mg/kg/day); 7 days after laser irradiation
Procedure: An anti-VEGF antibody and/or fidarestat were administered to a mouse that had been treated to induce CNV in a similar manner to that in Experiment 1. […] The number of examples was three or four per a group, and the following five groups were set. […] The both eyes were photographed by an eye-fundus camera, and the obtained eye-ground picture was evaluated in a blinded manner according to the following criteria. • grade 0: nonleaky, no leakage from blood-vessel • grade 1: questionable leakage, weak leakage was observed • grade 2: leaky, leakage was observed • grade 3: pathologically significant leakage, clear leakage was observed on wide area The ratio of the number of the FA grade 3 lesions (%) in each eye was calculated, and the average value of the calculated rates in each group was obtained. […]

[3] = system: choroidal neovascularization (CNV) model; experiment: Laser-induced choroidal neovascularization (CNV) mouse model, CNV volume (Experiment 1); format: in vivo, mouse (male C57BL/6J)
From the text: In the CNV model, macrophages migrate by the initiation of an inflammation by laser irradiation. Since VEGF are produced, neovascular vessels are generated, and increased vascular permeability is observed as the result thereof, the CNV model is one of models that produce VEGF. […] The both eyes of a male C57BL/6J mice having a body weight of about 20 g (6-week old) were irradiated with laser (irradiated by 4 to 6 spots per one eye) to induce CNV experimentally. As mentioned below, an anti-VEGF antibody and/or fidarestat were administered as a drug. […] As the anti-VEGF antibody, an anti-mouse VEGF antibody purchased from R&D Systems was used. The number of examples was three or four per a group, and the following four groups were set. […] After completion of the laser irradiation, the mice were bred by general breeding for 7 days, and thereafter the eye balls were excised and the volume of CNV appeared in the choroid was measured. […] The volume of CNV was measured by importing an image in the vicinity of CNV by a confocal laser microscope (Zeiss LSM5 Pascal) and using image analysis software (NIH Image J). […]

[4] = injected in the vitreous body of a human; cited from earlier work

Compound: NC(=O)[C@@H]1C[C@]2(NC(=O)NC2=O)c2cc(F)ccc2O1 [fidarestat, (2S,4S)-6-fluoro-2′,5′-dioxospiro[chroman-4,4′-imidazolidine]-2-carboxamide]
- overexpression of VEGF ([1]; retina): suppresses
- retinal oxidative stress [1]: suppresses
- ratio of the number of the FA grade 3 lesions [2]: approximately the same rate as that in the 2 ng anti-VEGF antibody-administered group
- dose at which the maximum medicinal effect is shown ([3]; CNV mouse model, fidarestat): 32 mg/kg/day
- effect of suppressing CNV (CNV volume) compared to the untreated group ([3]; fidarestat 32 mg/kg/day in powder feedstuff, from 2 days before to 7 days after laser irradiation): significant effect of suppressing CNV was observed (p<0.05)

Compound: ranibizumab: typical anti-VEGF agent, anti-VEGF antibody used as intravitreal injection
- disappearing half-life [4]: 220 h
